# Tests used:
# [1] = molecular target: T1, CLN8 (tag-cleaved, codon-optimised human CLN8 from yeast) (Homo sapiens, UniProt Q9UBY8); assay: cryo-EM structure, […] A; type: binding; settings: co-purified; transmembrane pocket of each monomer at the dimer interface, not the active site
# T1 construct: full-length, C-terminal 6xHis tag cut with Factor Xa; expressed in S. cerevisiae W303.1B; homodimer in LMNG; residues 1-15 and 261-286 disordered
# [2] = molecular target: T1, CLN8 (tag-cleaved, codon-optimised human CLN8 from yeast); assay: cryo-EM structure, […] A; type: binding; settings: covalent acyl-enzyme intermediate at H138 proposed (continuous density not resolved), CoA at the dimer interface, incubated with 100 uM
smiles,measurement,setting,value
CC(C)(COP(=O)(O)OP(=O)(O)OC[C@H]1O[C@@H](n2cnc3c(N)ncnc32)[C@H](O)[C@@H]1OP(=O)(O)O)[C@@H](O)C(=O)NCCC(=O)NCCS [CoA],"cryo-EM structure, 3.65 A",[1],we observed two coenzyme A (CoA) molecules bound in pockets located within the transmembrane region
CC/C=C\C/C=C\C/C=C\C/C=C\C/C=C\C/C=C\CCC(=O)SCCNC(=O)CCNC(=O)[C@H](O)C(C)(C)COP(=O)(O)OP(=O)(O)OC[C@H]1O[C@@H](n2cnc3c(N)ncnc32)[C@H](O)[C@@H]1OP(=O)(O)O [C22:6-CoA],"cryo-EM structure, 2.7 A",[2]; C22:6 chain modelled in the active site,we determined cryo-EM structures of CLN8 prepared in the presence of either C18:1-CoA or C22:6-CoA
CCCCCCCC/C=C\CCCCCCCC(=O)SCCNC(=O)CCNC(=O)[C@H](O)C(C)(C)COP(=O)(O)OP(=O)(O)OC[C@H]1O[C@@H](n2cnc3c(N)ncnc32)[C@H](O)[C@@H]1OP(=O)(O)O [C18:1-CoA],"cryo-EM structure, 2.7 A",[2]; oleoyl chain modelled in the active site,we determined cryo-EM structures of CLN8 prepared in the presence of either C18:1-CoA or C22:6-CoA

# From publication doi:10.64898/2025.12.18.695077v1, “Stereospecific GPG acylation by CLN8 drives BMP biosynthesis and its loss leads to Batten disease” (biorxiv, 2025)
